Laboratory results published in patent US20240399001A1, “RA[…] TH[…] TO FIBROBLAST ACTIVATION PROTEIN (FAP)” (BLUE EARTH D[…], priority 2021, published 2024).

Legend:
FAP = target: T1, FAP (Homo sapiens, UniProt Q12884); experiment: In vitro FAP binding affinity, Grating-Coupled Interferometry (GCI), waveRAPID kinetics assay; details: immobilized biotinylated FAP; 1×PBS pH 7.4, 1 mM DTT, 0.005% Tween, 2% DMSO; non-radiolabelled compounds
T1 construct: biotin (biotinylated)
T1 sequence (Q12884 1-760): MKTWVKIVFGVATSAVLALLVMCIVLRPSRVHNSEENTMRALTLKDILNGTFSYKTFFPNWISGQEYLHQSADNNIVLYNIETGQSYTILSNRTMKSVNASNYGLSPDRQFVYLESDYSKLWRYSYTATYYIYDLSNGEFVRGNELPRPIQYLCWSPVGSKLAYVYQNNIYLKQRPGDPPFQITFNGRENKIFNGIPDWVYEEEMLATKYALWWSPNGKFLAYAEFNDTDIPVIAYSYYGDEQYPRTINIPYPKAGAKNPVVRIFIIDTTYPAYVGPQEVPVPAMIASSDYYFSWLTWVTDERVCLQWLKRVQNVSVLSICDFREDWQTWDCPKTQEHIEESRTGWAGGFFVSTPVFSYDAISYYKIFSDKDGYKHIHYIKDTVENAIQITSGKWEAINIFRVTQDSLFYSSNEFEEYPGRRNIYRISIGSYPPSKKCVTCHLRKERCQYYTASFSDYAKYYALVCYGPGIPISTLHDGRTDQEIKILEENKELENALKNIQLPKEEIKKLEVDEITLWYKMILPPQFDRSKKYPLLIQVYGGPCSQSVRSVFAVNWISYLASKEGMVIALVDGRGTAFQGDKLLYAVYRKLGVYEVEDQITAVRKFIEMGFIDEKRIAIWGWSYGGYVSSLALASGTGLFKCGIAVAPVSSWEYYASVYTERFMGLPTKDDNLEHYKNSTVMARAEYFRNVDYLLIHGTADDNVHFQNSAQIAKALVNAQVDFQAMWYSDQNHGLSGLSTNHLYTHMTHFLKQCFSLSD
Protocol: The binding affinity of non-radiolabelled compounds Example 2 (Ga—(S,R,R)—SiFA-FAP-1) and Example 1 ((S,R,R)—SiFA-FAP-1) was assessed in vitro using Grating-Coupled Interferometry (GCI) and waveRAPID kinetics assay (Kartal Ö et al. SLAS Discov. 2021 September; 26(8)-995-1003).
FAP was immobilized on a streptavidin sensor chap in order to assess target binding of compounds. Briefly, the streptavidin chip was conditioned with borate buffer and activated with EDC-NHS solution. Immobilization was achieved via amine coupling to the surface on an amine reactive sensor chip (NeutrAvidin sensor chip) and unused amine reactive groups were deactivated with ethanolamine. FAP was immobilized via via NeutrAvidin capturing of the biotinylated FAP and remaining NeutrAvidin quenched with biocytin. Binding of the compounds to immobilized FAP was assessed using the waveRAPID kinetics assay, using different concentrations of each compound in 1×PBS pH 7.4, 1 mM DTT, 0.005% Tween, 2% DMSO. Binding affinity to FAP was reported as KD.

[1] = system: subcutaneous U87-MG tumour; experiment: In vivo PET imaging uptake in U87-MG tumour-bearing mice; details: 60 minutes post-radiotracer administration; for PET imaging uptake, Muscle: U87-MG tumor-bearing mice; for PET imaging uptake, Muscle / PET imaging uptake, Tumor: i.v.
Protocol: (§1) The human glioblastoma U87-MG cell line was purchased from ATCC. Cells were cultured in EMEM (supplemented with 2 mM L-glutamine, with 10% fetal bovine serum and 0.1 mM NEAA) at 37° C. in a humidified atmosphere (5% CO2, 95% air).
(§2) All animal experiments were conducted in accordance with the Federation for Laboratory Animal Science Associations guidelines. Healthy female Swiss nude (CrI:NU(Ico)-Foxn1nu) mice (5-6 weeks old) were purchased from Charles River. Mice were irradiated 24-72 hours prior to tumour cell inoculation (whole-body irradiation, 2 Gy/mouse), and U87-MG cells (1×10^7 in 200 μL of RPMI 1640) were then injected subcutaneously into the right shoulder flank.
(§3) Female Swiss nude (CrI:NU(Ico)-Foxn1nu) mice each bearing a subcutaneous U87-MG tumour in the right flank (n=4) were administered with radiolabelled compound of Example 11 ([^18F]—Ga—(S,R,R)—SiFA-FAP-1) (8±1.5 MBq, 100 μL per mouse) intravenously into the tail vein (approximately 3 weeks post inoculation of U87-MG cells). Static PET imaging was performed 60 minutes post-radiotracer administration under anaesthesia (2% isoflurane) using a small animal PET scanner (eXploreVISTA, GE) (n=3). Whole-body PET acquisitions were performed over two bed positions for 20 minutes. Regions of interest were generated, and radiotracer uptake in tissues was calculated as % injected dose per region of interest volume (% ID/cm^3). Immediately post-PET imaging, mice (n=4) were sacrificed and select tissues (blood, tumor, heart, lung, liver, kidneys, spleen, pancreas, intestine, bone, muscle, tail) were harvested and weighed. Radioactivity in the collected samples was determined using γ-counting (Packard). Radiotracer uptake was calculated as % injected dose per gram of tissue (% ID/g).

[2] = system: subcutaneous U87-MG tumour; experiment: Biodistribution by γ-counting of excised tissues of U87-MG tumour-bearing mice; format: in vivo; details: γ-counting 80 minutes post-radiotracer injection; for Biodistribution, Blood / Biodistribution, Bone / Biodistribution, Heart / Biodistribution, Intestine / Biodistribution, Kidneys / Biodistribution, Liver / Biodistribution, Lung / Biodistribution, Muscle / Biodistribution, Pancreas / Biodistribution, Spleen: U87-MG tumor-bearing mice
Protocol: as §1, §2, §3

Compound: CC(C)(C)[Si](F)(c1ccc(C(=O)NC[C@@H](NC(=O)CC[C@H](C(=O)O)N2CCN(CC(=O)O)CCN(CC(=O)O)CCN(CC(=O)O)CC2)C(=O)NCCCOc2ccc3nccc(C(=O)NCC(=O)N4CCC[C@H]4C#N)c3c2)cc1)C(C)(C)C [Example 1, 2,2′,2″-(10-((R)-1-Carboxy-4-(((R)-1-((3-((4-((2-((S)-2-cyanopyrrolidin-1-yl)-2-oxoethyl)carbamoyl)quinolin-6-yl)oxy)propyl)amino)-3-(4-(di-tert-butylfluorosilyl)benzamido)-1-oxopropan-2-yl)amino)-4-oxobutyl)-1,4,7,10-tetraazacyclododecane-1,4,7-triyl) triacetic acid]
- Kd (FAP): 0.031 nM

Compound: CC(C)(C)[Si]([18F])(c1ccc(C(=O)NC[C@@H](NC(=O)CC[C@H](C(=O)O)N2CCN(CC(=O)O)CCN(CC(=O)O)CCN(CC(=O)O)CC2)C(=O)NCCCOc2ccc3nccc(C(=O)NCC(=O)N4CCC[C@H]4C#N)c3c2)cc1)C(C)(C)C [Example 11]
- PET imaging Tumor:Muscle ratio ([1]; Mean ± SD (n=3)): 4.4 ± 0.8
- PET imaging Tumor:Muscle ratio ([1]; Mouse 1): 4.6
- PET imaging Tumor:Muscle ratio ([1]; Mouse 2): 5
- PET imaging Tumor:Muscle ratio ([1]; Mouse 3): 3.5
- PET imaging uptake, Muscle ([1]; Mean ± SD (n=3)): 1.0 ± 0.1 % ID/cm^3
- PET imaging uptake, Muscle ([1]; Mouse 1): 1 % ID/cm^3
- PET imaging uptake, Muscle ([1]; Mouse 2): 0.8 % ID/cm^3
- PET imaging uptake, Muscle ([1]; Mouse 3): 1.1 % ID/cm^3
- PET imaging uptake, Tumor ([1]; Mean ± SD (n=3)): 4.1 ± 0.3 % ID/cm^3
- PET imaging uptake, Tumor ([1]; Mouse 1): 4.4 % ID/cm^3
- PET imaging uptake, Tumor ([1]; Mouse 2): 4.2 % ID/cm^3
- PET imaging uptake, Tumor ([1]; Mouse 3): 3.8 % ID/cm^3
- Biodistribution, Blood ([2]; Mean ± SD (n=4)): 2.6 ± 1.1 % ID/g
- Biodistribution, Bone ([2]; Mean ± SD (n=4)): 5.1 ± 1.3 % ID/g
- Biodistribution, Heart ([2]; Mean ± SD (n=4)): 1.1 ± 0.2 % ID/g
- Biodistribution, Intestine ([2]; Mean ± SD (n=4)): 7.3 ± 2.4 % ID/g
- Biodistribution, Kidneys ([2]; Mean ± SD (n=4)): 3.0 ± 1.2 % ID/g
- Biodistribution, Liver ([2]; Mean ± SD (n=4)): 3.3 ± 0.8 % ID/g
- Biodistribution, Lung ([2]; Mean ± SD (n=4)): 1.7 ± 0.1 % ID/g
- Biodistribution, Muscle ([2]; Mean ± SD (n=4)): 0.6 ± 0.1 % ID/g
- Biodistribution, Pancreas ([2]; Mean ± SD (n=4)): 0.6 ± 0.1 % ID/g
- Biodistribution, Spleen ([2]; Mean ± SD (n=4)): 0.7 ± 0.1 % ID/g
- Biodistribution, Blood ([2]; Mouse 1): 2.0 % ID/g
- Biodistribution, Bone ([2]; Mouse 1): 5.7 % ID/g
- Biodistribution, Heart ([2]; Mouse 1): 1.1 % ID/g
- Biodistribution, Intestine ([2]; Mouse 1): 5.4 % ID/g
- Biodistribution, Kidneys ([2]; Mouse 1): 3.8 % ID/g
- Biodistribution, Liver ([2]; Mouse 1): 3.8 % ID/g
- Biodistribution, Lung ([2]; Mouse 1): 1.6 % ID/g
- Biodistribution, Muscle ([2]; Mouse 1): 0.5 % ID/g
- Biodistribution, Pancreas ([2]; Mouse 1): 0.7 % ID/g
- Biodistribution, Spleen ([2]; Mouse 1): 0.7 % ID/g
- Biodistribution, Blood ([2]; Mouse 2): 1.3 % ID/g
- Biodistribution, Bone ([2]; Mouse 2): 6.6 % ID/g
- Biodistribution, Heart ([2]; Mouse 2): 0.9 % ID/g
- Biodistribution, Intestine ([2]; Mouse 2): 5.3 % ID/g
- Biodistribution, Kidneys ([2]; Mouse 2): 1.6 % ID/g
- Biodistribution, Liver ([2]; Mouse 2): 2.5 % ID/g
- Biodistribution, Lung ([2]; Mouse 2): 1.8 % ID/g
- Biodistribution, Muscle ([2]; Mouse 2): 0.8 % ID/g
- Biodistribution, Pancreas ([2]; Mouse 2): 0.6 % ID/g
- Biodistribution, Spleen ([2]; Mouse 2): 0.6 % ID/g
- Biodistribution, Blood ([2]; Mouse 3): 3.5 % ID/g
- Biodistribution, Bone ([2]; Mouse 3): 4.0 % ID/g
- Biodistribution, Heart ([2]; Mouse 3): 1.3 % ID/g
- Biodistribution, Intestine ([2]; Mouse 3): 8.6 % ID/g
- Biodistribution, Kidneys ([2]; Mouse 3): 4.2 % ID/g
- Biodistribution, Liver ([2]; Mouse 3): 2.7 % ID/g
- Biodistribution, Lung ([2]; Mouse 3): 1.7 % ID/g
- Biodistribution, Muscle ([2]; Mouse 3): 0.5 % ID/g
- Biodistribution, Pancreas ([2]; Mouse 3): 0.6 % ID/g
- Biodistribution, Spleen ([2]; Mouse 3): 0.7 % ID/g
- Biodistribution, Blood ([2]; Mouse 4): 3.5 % ID/g
- Biodistribution, Bone ([2]; Mouse 4): 4.2 % ID/g
- Biodistribution, Heart ([2]; Mouse 4): 1.2 % ID/g
- Biodistribution, Intestine ([2]; Mouse 4): 10.1 % ID/g
- Biodistribution, Kidneys ([2]; Mouse 4): 2.4 % ID/g
- Biodistribution, Liver ([2]; Mouse 4): 4.2 % ID/g
- Biodistribution, Lung ([2]; Mouse 4): 1.8 % ID/g
- Biodistribution, Muscle ([2]; Mouse 4): 0.6 % ID/g
- Biodistribution, Pancreas ([2]; Mouse 4): 0.5 % ID/g
- Biodistribution, Spleen ([2]; Mouse 4): 0.7 % ID/g
- radiotracer uptake higher in tumor compared to muscle (biodistribution analyses) [2]: 8 fold
- Biodistribution - Tumor to muscle ratio (T:M) ([2]; Mean ± SD (n=4)): 8.3 ± 2.9
- Biodistribution, Tumor ([2]; Mean ± SD (n=4)): 4.8 ± 1.1 % ID/g
- Biodistribution - Tumor to muscle ratio (T:M) ([2]; Mouse 1): 11.0
- Biodistribution, Tumor ([2]; Mouse 1): 5.8 % ID/g
- Biodistribution - Tumor to muscle ratio (T:M) ([2]; Mouse 2): 5.9
- Biodistribution, Tumor ([2]; Mouse 2): 4.8 % ID/g
- Biodistribution - Tumor to muscle ratio (T:M) ([2]; Mouse 3): 10.6
- Biodistribution, Tumor ([2]; Mouse 3): 5.2 % ID/g
- Biodistribution - Tumor to muscle ratio (T:M) ([2]; Mouse 4): 5.7
- Biodistribution, Tumor ([2]; Mouse 4): 3.2 % ID/g
